Measured values taken from the NIST ThermoML archive (doi:10.1016/j.jct.2014.05.014).
Numbers after ± are expanded uncertainties.

Experiment: refractive index (Na D-line) (dimensionless); cn = amount concentration of the nth substance listed, in mol/dm3
Conditions: 101.3 kPa, Liquid, Standard Abbe refractometry

**Q.** For `CC(N)C(=O)[O-].[Na+]` (stereo not drawn) [sodium DL-alaninate] + O, which refractive index (303.15 K, c1 = 0.498) is on record?
**A.** Its refractive index is 1.3409 ± 0.00033.

**Q.** What about the refractive index (303.15 K, c1 = 0.99) of the same molecule?
**A.** Its refractive index is 1.34952 ± 0.00037.

**Q.** And the refractive index (303.15 K, c1 = 1.485)?
**A.** The refractive index was 1.35799 ± 0.00042.

**Q.** What about the refractive index (303.15 K, c1 = 1.983) of the same molecule?
**A.** The refractive index was 1.3663 ± 0.00047.

**Q.** And the refractive index (303.15 K, c1 = 2.476)?
**A.** Its refractive index is 1.37433 ± 0.00053.

**Q.** And the refractive index (303.15 K, c1 = 3.063)?
**A.** The refractive index was 1.38382 ± 0.00061.

**Q.** What about the refractive index (308.15 K, c1 = 0.498) of the same molecule?
**A.** Its refractive index is 1.34021 ± 0.00033.

**Q.** And the refractive index (308.15 K, c1 = 0.99)?
**A.** Its refractive index is 1.34876 ± 0.00037.

**Q.** And the refractive index (308.15 K, c1 = 1.485)?
**A.** The refractive index was 1.35719 ± 0.00042.

**Q.** And the refractive index (308.15 K, c1 = 1.983)?
**A.** Its refractive index is 1.36544 ± 0.00047.

**Q.** And the refractive index (308.15 K, c1 = 2.476)?
**A.** Its refractive index is 1.37341 ± 0.00053.

**Q.** And the refractive index (308.15 K, c1 = 3.063)?
**A.** Its refractive index is 1.38284 ± 0.00061.

**Q.** What about the refractive index (313.15 K, c1 = 0.498) of the same molecule?
**A.** Its refractive index is 1.33945 ± 0.00033.

**Q.** What about the refractive index (313.15 K, c1 = 0.99) of the same molecule?
**A.** The refractive index was 1.34796 ± 0.00037.

**Q.** What about the refractive index (313.15 K, c1 = 1.485) of the same molecule?
**A.** Its refractive index is 1.35636 ± 0.00041.

**Q.** What about the refractive index (313.15 K, c1 = 1.983) of the same molecule?
**A.** Its refractive index is 1.36454 ± 0.00047.

**Q.** And the refractive index (313.15 K, c1 = 2.476)?
**A.** Its refractive index is 1.37246 ± 0.00053.

**Q.** What about the refractive index (313.15 K, c1 = 3.063) of the same molecule?
**A.** Its refractive index is 1.3818 ± 0.00061.

**Q.** What about the refractive index (318.15 K, c1 = 0.498) of the same molecule?
**A.** Its refractive index is 1.33864 ± 0.00033.

**Q.** What about the refractive index (318.15 K, c1 = 0.99) of the same molecule?
**A.** The refractive index was 1.34712 ± 0.00037.

**Q.** And the refractive index (318.15 K, c1 = 1.485)?
**A.** The refractive index was 1.35547 ± 0.00041.

**Q.** And the refractive index (318.15 K, c1 = 1.983)?
**A.** Its refractive index is 1.36361 ± 0.00047.

**Q.** And the refractive index (318.15 K, c1 = 2.476)?
**A.** The refractive index was 1.37149 ± 0.00053.

**Q.** What about the refractive index (318.15 K, c1 = 3.063) of the same molecule?
**A.** The refractive index was 1.38074 ± 0.0006.

**Q.** What about the refractive index (323.15 K, c1 = 0.498) of the same molecule?
**A.** Its refractive index is 1.33778 ± 0.00033.

**Q.** What about the refractive index (323.15 K, c1 = 0.99) of the same molecule?
**A.** The refractive index was 1.34624 ± 0.00037.

**Q.** What about the refractive index (323.15 K, c1 = 1.485) of the same molecule?
**A.** The refractive index was 1.35455 ± 0.00041.

**Q.** And the refractive index (323.15 K, c1 = 1.983)?
**A.** Its refractive index is 1.36264 ± 0.00047.

**Q.** And the refractive index (323.15 K, c1 = 2.476)?
**A.** Its refractive index is 1.37049 ± 0.00052.

**Q.** What about the refractive index (323.15 K, c1 = 3.063) of the same molecule?
**A.** Its refractive index is 1.3797 ± 0.0006.

**Q.** And the refractive index (328.15 K, c1 = 0.498)?
**A.** The refractive index was 1.33688 ± 0.00033.

**Q.** And the refractive index (328.15 K, c1 = 0.99)?
**A.** The refractive index was 1.34528 ± 0.00037.

**Q.** And the refractive index (328.15 K, c1 = 1.485)?
**A.** The refractive index was 1.35358 ± 0.00041.

**Q.** And the refractive index (328.15 K, c1 = 1.983)?
**A.** The refractive index was 1.36164 ± 0.00047.

**Q.** And the refractive index (328.15 K, c1 = 2.476)?
**A.** Its refractive index is 1.36949 ± 0.00052.

**Q.** And the refractive index (328.15 K, c1 = 3.063)?
**A.** The refractive index was 1.37866 ± 0.0006.

**Q.** And the refractive index (333.15 K, c1 = 0.498)?
**A.** The refractive index was 1.33592 ± 0.00033.

**Q.** And the refractive index (333.15 K, c1 = 0.99)?
**A.** The refractive index was 1.34432 ± 0.00037.

**Q.** What about the refractive index (333.15 K, c1 = 1.485) of the same molecule?
**A.** Its refractive index is 1.35259 ± 0.00041.

**Q.** And the refractive index (333.15 K, c1 = 1.983)?
**A.** The refractive index was 1.36061 ± 0.00047.

**Q.** And the refractive index (333.15 K, c1 = 2.476)?
**A.** Its refractive index is 1.36845 ± 0.00052.

**Q.** And the refractive index (333.15 K, c1 = 3.063)?
**A.** The refractive index was 1.37755 ± 0.0006.

**Q.** What about the refractive index (338.15 K, c1 = 0.498) of the same molecule?
**A.** Its refractive index is 1.3349 ± 0.00033.

**Q.** And the refractive index (338.15 K, c1 = 0.99)?
**A.** Its refractive index is 1.34333 ± 0.00036.

**Q.** What about the refractive index (338.15 K, c1 = 1.485) of the same molecule?
**A.** The refractive index was 1.35156 ± 0.00041.

**Q.** And the refractive index (338.15 K, c1 = 1.983)?
**A.** The refractive index was 1.35958 ± 0.00046.

**Q.** What about the refractive index (338.15 K, c1 = 2.476) of the same molecule?
**A.** The refractive index was 1.36735 ± 0.00052.

**Q.** And the refractive index (338.15 K, c1 = 3.063)?
**A.** The refractive index was 1.37643 ± 0.0006.

**Q.** And the refractive index (343.15 K, c1 = 0.498)?
**A.** Its refractive index is 1.33388 ± 0.00033.

**Q.** What about the refractive index (343.15 K, c1 = 0.99) of the same molecule?
**A.** Its refractive index is 1.34232 ± 0.00036.

**Q.** And the refractive index (343.15 K, c1 = 1.485)?
**A.** Its refractive index is 1.35053 ± 0.00041.

**Q.** And the refractive index (343.15 K, c1 = 1.983)?
**A.** Its refractive index is 1.35853 ± 0.00046.

**Q.** And the refractive index (343.15 K, c1 = 2.476)?
**A.** Its refractive index is 1.36627 ± 0.00052.

**Q.** What about the refractive index (343.15 K, c1 = 3.063) of the same molecule?
**A.** Its refractive index is 1.37534 ± 0.00059.
